Tests used:
[1] = test system: non-chloroquine resistant P. falciparum; test: P. falciparum culture, 3H-hypoxanthine incorporation; type: cell-based, Plasmodium falciparum; conditions: at concentrations up to 33 µM
Method: The parasite was grown in a human red blood cell culture (RPMI 1640, 7.5% bicarbonate, 50 µM hypoxanthine, 50 µg/ml gentamycin, and 7.5% human plasma) at 1% hematocrit and 2% parasitemia. Cultures containing predominantly ring forms were used; synchronization of the culture was performed if trophozoites represented more than 1–2% of the various developmental stages. Briefly, the culture was centrifuged and the supernatant replaced by 5% (isotonic) sorbitol. After 5 minutes at 37°C the culture was centrifuged again and the supernatant replaced by culture medium to obtain a final 1% hematocrit.
Drug testing was performed in 96-well microtiter plates incubated at 37°C in a 5% O2, 5% CO2, and 90% N2 gas mixture for 72 hours. After 48 hours, 1 µCi ^3H-hypoxanthine was added to each well and the plates were read the next day using a scintillation counter.

microglia = test: Microglial activation, IBA-1 immunohistology; type: in vivo, C57Bl/6 mice; conditions: IBA-1, normalized to non-infected mice
Method: Sections were thaw-mounted onto on poly-L-lysine-coated slides and stored at -80°C until use.
Slides were thawed by sequential incubation at −20°C and 5°C (10 minutes at each temperature) and incubated in blocking solution consisting of 20% of 5% BSA and 80% of 5% NGS, in a moist environment at room temperature (RT). After one hour the blocking solution was removed and sections incubated overnight at 5°C with primary antibody diluted 1∶200 in blocking solution. Microglia were stained using rabbit anti-mouse ionized calcium binding adaptor molecule 1 (IBA-1) (Wako Chemicals, Richmond, VA, USA); astrocytes were stained using rabbit anti-bovine glial fibrillary acidic protein (GFAP) (cross-reactive to mouse; LifeSpan Biosciences, Seattle, WA, USA). After washing in PBS, slides were incubated for one hour at RT with secondary antibody, Cy3-AffiniPure donkey anti-rabbit IgG H+L (diluted 1∶200 in PBS; Jackson Immunoresearch Laboratories, West Grove, PA, USA), followed by an additional wash. […] At least three sections per brain (6 fields each) were examined, and the total number of astrocytes and microglia counted. […] Images were visualized and analyzed with ImagePro analysis software: quantification of relative fluorescence was performed using the integrated optical density (IOD) parameter. […]

[2] = other disease models; ref [5]; cited from earlier work

SMILES: C[C@H]1C[C@H]2[C@@H]3CCC4=CC(=O)C=C[C@]4(C)[C@@]3(F)[C@@H](O)C[C@]2(C)[C@@]1(O)C(=O)COC(=O)CCC(=O)O [BMS, β-methasone hemisuccinate]
- IC50 (effect against cultured P. falciparum) [1]: no effect ^*
- IC50 (effect against cultured P. falciparum) ([1]; listed as Free BMS): not effective
- Microglia, normalized IOD (microglia; day 5 p.i.): 12±1
- Microglia, normalized IOD (microglia; day 9 p.i.): 10±0.05
- Potency of BMS relative to MPS [2]: five
